How the values were obtained:
NIH 3T3 cells [1] = test: Cell migration through 8.0-μm porous Boyden chambers, gradient or uniform chemokine; assay type: cell-based, mouse; settings: for chemoattractant activity (directed cell migration toward a gradient) / random cell migration: NIH 3T3, 8.0-μm pores; for chemoattractant activity (directed cell migration toward a gradient): 3 h; for random cell migration: uniform concentration
Experimental: (§1) Pseudopodia extension was monitored using a pseudopodia assay kit (ECM 650; Chemicon International) or Costar chambers. Serum-starved cells (75,000) were placed into the upper compartment of a chamber ([…]) equipped with a 3.0-μm porous polycarbonate membrane coated on both sides with an optimal amount of ECM protein (5 μg/ml fibronectin or collagen type I). Cells were allowed to attach and spread on the upper surface of the membrane for 2 h, and then stimulated with LPA (Sigma-Aldrich), insulin, or buffer only, which was placed in the lower chamber to establish a gradient or placed in the upper and lower chamber to form a uniform concentration. Cells were allowed to extend pseudopodia through the pores toward the direction of the gradient for various times. To initiate pseudopodia retraction, the chemoattractant was removed or an equivalent amount of chemoattractant placed in the upper chamber to create a uniform concentration. The cell body on the upper surface was manually removed with a cotton swab and the total pseudopodia protein only on the undersurface was determined using BCA and a microprotein assay system (Pierce Chemical Co.). Additionally, pseudopodia can be stained with 1% crystal violet in 2% ethanol and then the dye eluted with 10% acetic acid, which can be measured in an ELISA plate reader (OD 600) for comparison to a standard curve as previously described (Klemke et al., 1998).
(§2) NIH 3T3 cells were examined for cell migration for 3 h in 8.0-μm porous Boyden chambers containing different concentrations of LPA or insulin placed in 1) the bottom, 2) top, or 3) top and bottom compartments. The number of migratory cells per microscopic field (200×) on the underside of the membrane was counted as described in Example 1 above. Additionally, COS-7 cells were examined for cell migration as described above with respect to NIH 3T3 cells. […] In FIG. 1, each point on the graphs represents the mean±SEM of three triplicate migration chambers of three independent experiments.

COS-7 cells = test: as above; assay type: cell-based; settings: for chemoattractant activity (directed cell migration toward a gradient) / random cell migration: COS-7, 8.0-μm pores; for random cell migration: uniform concentration
Experimental: as §1, §2

NIH 3T3 cells [2] = test: Pseudopodia extension through 3.0-μm porous membranes toward LPA; assay type: cell-based, mouse; settings: 3.0-μm pores
Experimental: as §1
NIH 3T3 cells were allowed to attach to fibronectin coated 3.0-μm porous membranes for 2 h. Pseudopodia extension was then examined for various times in the absence (NT) or presence of LPA (100 ng/ml) in the bottom, top, or top and bottom compartments. Pseudopodia protein on the underside of the membrane was determined as described in Example 1. Results are set forth in FIG. 2, where each point in the graphs represents the mean±SEM of three triplicate membranes of three independent experiments. COS-7 cells were examined for pseudopodia protrusion in the same manner as for NIH 3T3 cells as described above.
Confocal images of NIH 3T3 pseudopodia protrusion on the undersurface of a 3.0-μm porous membrane in response to LPA (100 ng/ml) as a gradient (LPA bottom) or uniform concentration (LPA top and bottom) were generated. Cells were labeled with cell tracker green and then fixed at the indicated times to visualize protruding pseudopodia on the undersurface of the membrane.

NIH 3T3 cells [3] = test: Pseudopodia retraction after removal of the LPA gradient; assay type: cell-based, mouse
Experimental: as §1
Pseudopodia retraction was studied via the following methods. Pseudopodia extension of NIH 3T3 cells through 3.0-μm pores toward an LPA gradient was examined at 60, 120, 180 and 240 minutes, or the LPA gradient was removed after 60 min and pseudopodia were allowed to retract for the indicated times (LPA Removed). Total pseudopodia protein on the underside of the membrane was determined as described in Example 1.
Pseudopodia were allowed to extend for 60 min (time 0) toward an LPA gradient as described above. The gradient was then removed and pseudopodia were fixed at the indicated times (0, 30, 60, 120 minutes). […]

[4] = listed as lysophosphatidic acid
[5] = LPA gradient removed after 60 min extension

Substance | chemoattractant activity (directed cell migration toward a gradient) (NIH 3T3 cells [1]) | chemoattractant activity (directed cell migration toward a gradient) (NIH 3T3 cells [1]; listed as LSA) | chemoattractant activity (directed cell migration toward a gradient) (NIH 3T3 cells [1]; [4]) | random cell migration (NIH 3T3 cells [1]) | concentration at which chemotaxis reached a maximum (NIH 3T3 cells [1]; NIH 3T3, dose dependent) | chemoattractant activity (directed cell migration toward a gradient) (COS-7 cells) | chemoattractant activity (directed cell migration toward a gradient) (COS-7 cells; listed as LSA) | chemoattractant activity (directed cell migration toward a gradient) (COS-7 cells; [4]) | random cell migration (COS-7 cells) | concentration at which chemotaxis reached a maximum (COS-7 cells; COS-7, dose dependent) | pseudopodia extension, gradient versus uniform concentration (NIH 3T3 cells [2]; LPA gradient but not uniform concentration) | time at which extension of pseudopodia was first detected after exposure to the gradient (NIH 3T3 cells [2]; LPA gradient) | time over which pseudopodia extension proceeded linearly (NIH 3T3 cells [2]; LPA gradient) | cells polarized by extending pseudopodia (NIH 3T3 cells [2]; LPA gradient, confocal microscope) | cells displaying pseudopodia retraction (NIH 3T3 cells [3]; [5]) | onset of pseudopodia retraction after removing the gradient (NIH 3T3 cells [3]; [5]) | effect of restoring the gradient on retracting pseudopodia (NIH 3T3 cells [3]; LPA gradient restored after removal)
lysophosphatidic acid [LPA] | true chemoattractant | potent chemoattractant | potent chemoattractant | does not facilitate random cell migration | 100 to 200 ng/mL | true chemoattractant | potent chemoattractant | potent chemoattractant | does not facilitate random cell migration | 100 to 200 ng/mL | extend pseudopodia through small pores specifically in the direction of the gradient | 10 to 15 min | 60 to 90 min | > 90% | > 80% | ≤ 5 min | inhibited the retraction process and induced pseudopodia growth
insulin | poor chemoattractant | – | – | promoted random migration | – | poor chemoattractant | – | – | promoted random migration | – | – | – | – | – | – | – | –
